Data from patent US9974305B2, “Fungicidal or bactericidal composition, and method for controlling diseases” (NISSAN CHEMICAL INDUSTRIES, LTD., priority 2014, dated 2018).

How the values were obtained:
[1] = system: wheat glume blotch (Leptosphaeria nodorum); assay: Efficacy test on wheat glume blotch, spray treatment and prevention test (Test Example 8); assay type: in vivo; settings: spray, lesion area ratio
Method: An agent comprising the following compound listed in Table 2 (active ingredient A) and the following compound listed in Table 6, Table 11 or Table 15 (active ingredient B) as active ingredients, was prepared in accordance with the above Formulation Example. This agent was diluted with water to a predetermined concentration to obtain a test solution. Then, to seedlings of wheat (variety: Haruyutaka) at the 1-leaf stage, seeded in a pot with a diameter of 7 cm, with 5 seeds per pot, and grown for 7 days, the test solution was applied by a spray gun in an amount of 5 ml per pot, for treatment. One day after the treatment, a spore suspension (1×100,000 cfu/ml) of wheat glume blotch (Leptosphaeria nodorum) was spray-inoculated, and the pot was placed in a moist chamber set in temperature of 20° C. and humidity more than 95% RH for 48 hours. After placing the pot in a glass greenhouse for 7 days, the ratio of the formed lesion area occupying the inoculated leaves was measured, and the preventive value was calculated in accordance with the following formula. Preventive value=[1−(treated plot lesion area ratio/untreated plot lesion area ratio)]×100
(§1) Further, from the preventive value for each agent concentration, synergy was calculated by using the Colby method (Colby S. R. 1976, Weeds 15, 20-22).

[2] = system: cucumber gray mold fungus (Botrytis cinerea); assay: Preventive test against gray mold on cucumber cotyledon leaves, spray treatment, preventive value and Colby expected value (Test Examples 1-4); assay type: in vivo; settings: single compound
Method: Using the following compound listed in Table 2 (the active ingredient A) and the compound listed in Table 5 through Table 15 (active ingredient B), an agent was prepared in accordance with the above Formulation Example. This agent was diluted with water to a predetermined concentration to obtain a test solution. Then, cucumber (variety: Sagami-hanjiro) was planted in a plastic pot of 90 cm^3, and in the cotyledon stage, 5 ml of the obtained test solution, was sprayed by a spray gun and air-dried. Thereafter, the treated leaf was cut off and placed in a plastic container which filled approximately 0.5 cm in depth water. A suspension of conidia of cucumber gray mold fungus (Botrytis cinerea) and a dissolved PDA culture medium were mixed at a ratio of 1:1 (mass ratio), and the mixture was dropped to inoculate the treated leaf with 30 μl. After the inoculation, the plastic container was sealed and left at 20° C. for 3 days, the ratio of the formed lesion occupying the inoculated leaf was measured, and the preventive value was calculated in accordance with the following calculation formula. Preventive value=[1−(treated plot lesion area ratio/untreated plot lesion area ratio)]×100
Further, from the preventive value at each agent concentration, synergy was calculated by using the Colby method (Colby S. R. 1976, Weeds 15, 20-22). The calculation method is as follows. E=X+Y−XY/100
X: preventive value of A agent at x concentration
Y: preventive value of B agent at y concentration
E: theoretical value expected by treatment of the mixture of A agent and B agent.
The obtained result is analyzed to be synergy if the observed value is larger than the expected value, to be antagonism if the expected value is larger than the observed value, and to be an additive effect if the observed value and the expected value are the same.
Using the following compound listed in Table 2 (active ingredient A) and the following compound listed in Table 5 through Table 15 (active ingredient B) as active ingredients, a preventive test against gray mold was conducted in accordance with the method described in Test Example 1.
Using the following compound listed in Table 2 (active ingredient A) and the following compound listed in Table 5 or Table 6 (active ingredient B) as active ingredients, a preventive test against gray mold was conducted in accordance with the method described in Test Example 1.
Using the following compound listed in Table 2 (active ingredient A) and the following compound listed in Table 6 through Table 16 (active ingredient B) as active ingredients, a preventive test against gray mold was conducted in accordance with the method described in Test Example 1.

[3] = system: cucumber downy mildew (Pseudoperenospora cubensis); assay: Efficacy test on cucumber downy mildew, spray treatment and prevention test (Test Example 7); assay type: in vivo; settings: single compound 250 ppm; lesion area ratio
Method: An agent comprising the following compound listed in Table 2 (active ingredient A) and the compound listed in Table 6 (C40: active ingredient B) as active ingredients, was prepared in accordance with the above Formulation Example. This agent was diluted with water to a predetermined concentration to obtain a test solution. Then, to seedlings of cucumber (variety: Sagami-hanjiro) at 1.5-leaf stage grown in a pot with a diameter of 7 cm, the test solution was applied by a spray gun in an amount of 10 ml per pot, for treatment. One day after the treatment, a spore suspension (2×100,000 cfu/ml) of cucumber downy mildew (Pseudoperenospora cubensis), was spray-inoculated, and the pot was placed in a moist chamber set in temperature of 20° C. and humidity more than 95% RH for 24 hours. After placing the pot in a glass greenhouse for 6 days, the ratio of the formed lesion area occupying the inoculated leaves was measured, and the preventive value was calculated in accordance with the following formula. Preventive value=[1−(treated plot lesion area ratio/untreated plot lesion area ratio)]×100
as §1

[4] = system: rice sheath blight fungus (Rhizoctonia solani); assay: Efficacy test on rice sheath blight, spray treatment and prevention test (Test Examples 5-6); assay type: in vivo; settings: single compound 250 ppm, lesion height
Method: An agent comprising the following compound listed in Table 2 (active ingredient A) and the compound listed in Table 6 (C17: active ingredient B) as active ingredients, was prepared in accordance with the above Formulation Example. The agent was diluted with water to a predetermined concentration to obtain a test solution. Then, in a plastic pot of 90 cm^3, rice (Nipponbare) was seeded by 5 grains in one place, and to the grown seedlings in 4 seedling phase, the test solution was applied by a spray gun in an amount of 5 ml per pot, for treatment.
One day after the treatment, 1 g of mycelium flora of rice sheath blight fungus (Rhizoctonia solani) cultured in bran medium, was put by […] to a close-to-ground part of seedlings, and the pot was placed in a moist chamber set in temperature of 25° C. and humidity more than 95% RH for eight days. The height of the lesions which appeared in the highest position from the close-to-ground part (lesion height) was investigated, and the preventive value was calculated in accordance with the following formula. Preventive value=[1−(treated plot lesion height/untreated plot lesion height)]×100
as §1
Using the following compound listed in Table 2 (active ingredient A) and the compound listed in Table 6 (C17: active ingredient B) as active ingredients, a preventive test on rice sheath blight was conducted in accordance with the above Test Example 5.

[5] = system: wheat powdery mildew (Blumeria graminis); assay: Efficacy test on wheat powdery mildew, seed treatment (Test Example 10); assay type: in vivo; settings: wheat (Norin 61)
Method: An agent comprising the following compound listed in Table 2 (active ingredient A) and the compound listed in Table 11 (H35: active ingredient B) as active ingredients, was prepared in accordance with the above Formulation Example. This agent was diluted with water to a predetermined concentration to obtain a test solution. A predetermined amount of test solution was put in a glass bottle of 5 ml, and 0.5 g (approximately 15 grains) of wheat seeds (variety: Norin 61) were added, stirred and air-dried. In each pot with a diameter of 7 cm and having soil put therein, 3 grains were seeded and grown for 14 days. To the wheat seedlings grown to the 1-leaf stage, a spore suspension (100,000 cfu/ml) of wheat powdery mildew (Blumeria graminis) was spray-inoculated. After placing the pot in a glass greenhouse for 10 days, the ratio of the formed lesion area occupying the inoculated leaves was measured, and the preventive value was calculated in accordance with the following formula. Preventive value=[1−(treated plot lesion area ratio/untreated plot lesion area ratio)]×100
(§2) Further, from the preventive value at each agent concentration, synergy was calculated by using the Colby method (Colby S. R. 1976, Weeds 15, 20-22).

[6] = system: cucumber powdery mildew (Sphaerotheca cucurbitae); assay: Efficacy test on cucumber powdery mildew, irrigation treatment (Test Example 11); assay type: in vivo; settings: concentration 500 ppm, cucumber (Sagami-hanjiro)
Method: An agent comprising the following compound listed in Table 2 (active ingredient A) and the compound listed in Table 6 (C18: active ingredient B), was prepared in accordance with the above Formulation Example. This agent was diluted with water to a predetermined concentration to obtain a test solution. 5 ml of the test solution was irrigated by a pipette to the close-to-ground part of cucumber seedlings at the 1 leaf stage (variety: Sagami-hanjiro), grown in a styrol cup with a diameter of 10 cm, and next day, the seedlings were transplanted to the to 4 cun pots. Then, after cultivation for 7 days in a glass greenhouse, to the first true leaf of the cucumber, a spore suspension (100,000 cfu/ml) of cucumber powdery mildew (Sphaerotheca cucurbitae) was inoculated by spraying. After 10 days in a glass greenhouse, the ratio of the formed lesion area occupying the inoculated leaves was measured, and the preventive value was calculated in accordance with the following formula. Preventive value=[1−(treated plot lesion area ratio/untreated plot lesion area ratio)]×100
as §2

[7] = processing amount 5 mg/1 g seed
[8] = processing amount 10 mg/1 g seed

## CCC(C)ON=C(CNC(=O)c1cn(C)nc1C(F)F)c1ncc(C#CC2CC2)cc1Cl (mixture of isomers) [Compound No. 27]
[1]; single compound 3 ppm
  Preventive value: 75
[1]; single compound 10 ppm
  Preventive value: 85
[2]; Test Example 2, 3 ppm spray
  Preventive value: 50
[2]; Test Example 3, 3 ppm spray
  Preventive value: 55
[2]; Test Example 4, 3 ppm spray
  Preventive value: 45
[3]
  Preventive value: 0
[4]; Test Example 6
  Preventive value: 8
[5]; [7]
  Preventive value: 85
[5]; [8]
  Preventive value: 90
[6]
  Preventive value: 60

## CO/N=C(/CNC(=O)c1ccccc1C(F)(F)F)c1ncc(Cl)c(OC)c1Cl [Compound No. 8, (Z)—N-[2-[3,5-dichloro-4-(methoxy)pyridin-2-yl]-2-(methoxyimino)ethyl]-2-(trifluoromethyl)benzamide]
other
  melting point: 74 to 76 °C

## CC#Cc1cnc(C(CNC(=O)c2ccccc2C(F)(F)F)=NOC(C)C)c(Cl)c1 [compound 18]
[1]; single compound 3 ppm
  Preventive value: 50
[1]; single compound 10 ppm
  Preventive value: 65
[2]; Test Example 1, 3 ppm spray
  Preventive value: 88
[2]; Test Example 3, 3 ppm spray
  Preventive value: 85
[2]; Test Example 4, 3 ppm spray
  Preventive value: 75
[3]
  Preventive value: 0
[4]; Test Example 5
  Preventive value: 8
[5]; [7]
  Preventive value: 62
[5]; [8]
  Preventive value: 98
[6]
  Preventive value: 35

## O=C(NCC(=NOCC(F)(F)F)c1ncc(Cl)cc1Cl)c1ccccc1C(F)(F)F [compound 33]
[1]; single compound 3 ppm
  Preventive value: 20
[1]; single compound 10 ppm
  Preventive value: 45
[2]; Test Example 2, 3 ppm spray
  Preventive value: 45
[2]; Test Example 3, 3 ppm spray
  Preventive value: 45
[2]; Test Example 4, 3 ppm spray
  Preventive value: 50
[3]
  Preventive value: 0
[4]; Test Example 6
  Preventive value: 4
[5]; [7]
  Preventive value: 20
[5]; [8]
  Preventive value: 61
[6]
  Preventive value: 15

## CC#Cc1cnc(C(CNC(=O)c2cn(C)nc2C(F)F)=NOC(C)(C)C)c(Cl)c1 [compound 34]
[1]; single compound 3 ppm
  Preventive value: 80
[1]; single compound 10 ppm
  Preventive value: 85
[2]; Test Example 2, 1 ppm spray
  Preventive value: 63
[2]; Test Example 3, 1 ppm spray
  Preventive value: 70
[2]; Test Example 4, 1 ppm spray
  Preventive value: 50
[3]
  Preventive value: 5
[4]; Test Example 6
  Preventive value: 5
[5]; [7]
  Preventive value: 20
[5]; [8]
  Preventive value: 85
[6]
  Preventive value: 60

## CON=C(CNC(=O)c1cccnc1Cl)c1ncc(C#CC(C)(C)C)cc1Cl [compound 35]
[1]; single compound 3 ppm
  Preventive value: 50
[1]; single compound 10 ppm
  Preventive value: 70
[2]; Test Example 1, 3 ppm spray
  Preventive value: 88
[2]; Test Example 3, 3 ppm spray
  Preventive value: 90
[2]; Test Example 4, 3 ppm spray
  Preventive value: 88
[3]
  Preventive value: 0
[4]; Test Example 6
  Preventive value: 5
[5]; [7]
  Preventive value: 20
[5]; [8]
  Preventive value: 61
[6]
  Preventive value: 30

## CON=C(CNC(=O)c1ccccc1C(F)(F)F)c1ncc(C#CC2CC2)cc1Cl [compound 36]
[1]; single compound 3 ppm
  Preventive value: 55
[1]; single compound 10 ppm
  Preventive value: 70
[2]; Test Example 1, 3 ppm spray
  Preventive value: 75
[2]; Test Example 3, 3 ppm spray
  Preventive value: 80
[2]; Test Example 4, 3 ppm spray
  Preventive value: 80
[3]
  Preventive value: 0
[4]; Test Example 5
  Preventive value: 0
[5]; [7]
  Preventive value: 99
[5]; [8]
  Preventive value: 100
[6]
  Preventive value: 35
